According to patent US6849657B2, “2-pyrrolidone derivatives as prostanoid agonists” (Syntex (U.S.A.) LLC, priority 2001, dated 2005):
Where two headings read alike, the source gives them in different places.

Tests used:
rEP4 receptor = rEP4 receptor (UniProt P43114); assay: Competitive binding assay of [3H]PGE2 to rEP4 receptor
Description: (§1) Competitive Binding Assay of [^3H]PGE2 to rEP1, rEP2, rEP3 and rEP4 Receptor
(§2) Stably transfected cells expressing EP3 were grown in F-12 media (GIBCO) supplemented with 10% heat inactivated certified Fetal Bovine Serum (GIBCO) and pelleted. Prostanoid receptor EP2 or EP4 cDNA corresponding to the full-length coding sequence was subcloned into the appropriate sites of the mammalian expresson vector pcDNA 3.1(+)/Zeo (Invitrogen). Transfection-scale quantities of the vector were prepared using the Qiagen Endo-Free Plasmid Maxi Kit and transfected into COS-7 cells using FuGene 6 (Roche Molecular) according to the manufacturer's instructions (Roche). COS-7 cells were grown in DMEM (GIBCO) supplemented with 10% heat inactivated certified Fetal Bovine Serum (GIBCO) and Gentamicin (GIBCO), and were harvested 72 hours after transfection. Cells were pelleted by centrifugation, washed with PBS (GIBCO), repelleted, then flash-frozen in dry-ice/Ethanol or used directly for membrane preparation.
(§3) All procedures for membrane preparation were performed at 4° C. Prostanoid receptor-transfected COS-7 cells or stably transfected CHO cells were homogenized in assay buffers (see recipe, below) using a Polytron homogenizer (Brinkman) and centrifuged at 48,000×g for 30 minutes. Pellets were resuspended in assay buffer and resuspended by sonication using a Branson sonifier. Protein concentration was determined using the BioRad DC Protein Assay following the manufacturer's directions and stored at −80° C.
Reactions were initiated by addition of membrane protein (approximately 50 ug/reaction for EP3, 100 ug for EP2 and EP4). Dimethylsulfoxide (Sigma) concentration was kept constant at 1% (v/v) in all incubations, and compounds were assayed at final concentrations of 100 uM-0.3 nM. Non-specific binding was determined in the presence of 10 µM of non-radioactive PGE2 (Cayman Chemical). Incubations were conducted for 60 minutes at 30° C. (EP3) or 45 minutes at 23° C. (EP2 and EP4). […] The filters were washed with 3-4 mL of wash buffer (20 mM HEPES pH 7.4 for EP3, 10 mM MES, 0.01% BSA, pH 6.0 for EP2 and EP4), dried for at least 1 hour at room temperature, and the residual radioactivity bound to the individual filters determined by scintillation counting with addition of 37.5 uL of Microscint 20 (Packard) using a Packard TopCount Microplate Scintillation Counter. Statistics of binding were determined using Prism v 3.0 software (GraphPad).

rEP2 receptor = rEP2 receptor (UniProt Q62928); assay: Competitive binding assay of [3H]PGE2 to rEP2 receptor; details: [3H]-PGE2 competitive binding, membranes of transfected COS-7 cells, pH 6.0, 45 minutes at 23° C.; read-out: EP2, Ki
Description: as §1, §2, §3
Methods for competitive affinity binding assays of EP2, EP3 and EP4 were derived from those described in M. Abramovitz et al, “The utilization of recombinant prostanoid receptors to determine the affinities and selectivities of prostaglandins and related analogs” Biochimica et Biophysica Acta 1483 (2000) 285-293. Binding assays were performed in a final incubation volume of 0.2 mL in the following assay buffers: 20 mM HEPES, 1 mM EDTA, and 10 mM MgCl2 (pH 7.4) (EP3) or 10 mM MES, 10 mM MnCl2, and 1 mM EDTA_(pH to 6.0 with NaOH) (EP2 and EP4) and radioligand {2.25 nM (EP3) or 2.5 nM (EP2) [^3H]-PGE2 (200 Ci/mmol, NEN)}. Reactions were initiated by addition of membrane protein (approximately 50 ug/reaction for EP3, 100 ug for EP2 and EP4). Dimethylsulfoxide (Sigma) concentration was kept constant at 1% (v/v) in all incubations, and compounds were assayed at final concentrations of 100 uM-0.3 nM. Non-specific binding was determined in the presence of 10 µM of non-radioactive PGE2 (Cayman Chemical). Incubations were conducted for 60 minutes at 30° C. (EP3) or 45 minutes at 23° C. (EP2 and EP4). Incubations were terminated by rapid filtration through a 96-well Unifilter GF/B (Packard) (prewetted in 10 mM MES, 0.01% BSA, pH 6.0 for EP2) at 4° C. using a Filtermate 196 96-well semi-automated cell harvester (Packard). The filters were washed with 3-4 mL of wash buffer (20 mM HEPES pH 7.4 for EP3, 10 mM MES, 0.01% BSA, pH 6.0 for EP2 and EP4), dried for at least 1 hour at room temperature, and the residual radioactivity bound to the individual filters determined by scintillation counting with addition of 37.5 uL of Microscint 20 (Packard) using a Packard TopCount Microplate Scintillation Counter. Statistics of binding were determined using Prism v 3.0 software (GraphPad).

rEP3 receptor = target: T1, rEP3 receptor (UniProt P34980); assay: Competitive binding assay of [3H]PGE2 to rEP3 receptor; details: [3H]-PGE2 competitive binding, membranes of stably transfected cells, pH 7.4, 60 minutes at 30° C.; read-out: EP3, Ki
T1 sequence (P34980 1-365): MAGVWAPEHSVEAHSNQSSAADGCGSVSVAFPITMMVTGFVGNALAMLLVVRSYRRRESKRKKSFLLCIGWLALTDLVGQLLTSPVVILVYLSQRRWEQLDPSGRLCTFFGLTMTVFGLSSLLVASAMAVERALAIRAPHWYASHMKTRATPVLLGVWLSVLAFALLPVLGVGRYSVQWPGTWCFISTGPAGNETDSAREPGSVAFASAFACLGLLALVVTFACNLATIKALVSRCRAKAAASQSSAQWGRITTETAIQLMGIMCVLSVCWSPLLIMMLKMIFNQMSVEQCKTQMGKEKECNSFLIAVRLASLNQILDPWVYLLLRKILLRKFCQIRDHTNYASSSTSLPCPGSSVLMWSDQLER
Description: as §1, §2, §3
Methods for competitive affinity binding assays of EP2, EP3 and EP4 were derived from those described in M. Abramovitz et al, “The utilization of recombinant prostanoid receptors to determine the affinities and selectivities of prostaglandins and related analogs” Biochimica et Biophysica Acta 1483 (2000) 285-293. Binding assays were performed in a final incubation volume of 0.2 mL in the following assay buffers: 20 mM HEPES, 1 mM EDTA, and 10 mM MgCl2 (pH 7.4) (EP3) or 10 mM MES, 10 mM MnCl2, and 1 mM EDTA_(pH to 6.0 with NaOH) (EP2 and EP4) and radioligand {2.25 nM (EP3) or 2.5 nM (EP2) [^3H]-PGE2 (200 Ci/mmol, NEN)}. […] Non-specific binding was determined in the presence of 10 µM of non-radioactive PGE2 (Cayman Chemical). […] The filters were washed with 3-4 mL of wash buffer (20 mM HEPES pH 7.4 for EP3, 10 mM MES, 0.01% BSA, pH 6.0 for EP2 and EP4), dried for at least 1 hour at room temperature, and the residual radioactivity bound to the individual filters determined by scintillation counting with addition of 37.5 uL of Microscint 20 (Packard) using a Packard TopCount Microplate Scintillation Counter. Statistics of binding were determined using Prism v 3.0 software (GraphPad).

[1] = [3H]-PGE2 competitive binding, membranes of transfected COS-7 cells, pH 6.0, 45 minutes at 23° C.; read-out: EP4, Ki

Ki (rEP4 receptor; [1]) | Ki (rEP2 receptor) | Ki (rEP3 receptor) | SMILES | Ki (rEP4 receptor; read-out: EP4, Ki; [3H]-PGE2 competitive binding, membranes of transfected COS-7 cells, pH 6.0, 45 minutes at 23° C.)
5 nM | 1600 nM | 2600 nM | CCCCC[C@H](O)/C=C/[C@H]1CCC(=O)N1CCSCCCC(=O)O [Compound 1, 4-[(2-{(2R)-2-[(1E,3S)-3-hydroxyoct-1-enyl]-5-oxopyrrolidin-1-yl}ethyl)thio]butanoic acid] | 
90 nM | 18000 nM |  | CCCCCC(C)(O)/C=C/[C@H]1CCC(=O)N1CCSCCCC(=O)O (stereo partly drawn) [Compound 14, 4-{2-[(R)-2-((E)-3-hydroxy-3-methyl-oct-1-enyl)-5-oxo-pyrrolidin-1-yl]-ethylsulfanyl}-butyric acid] | 
8 nM | 7800 nM | 49000 nM | O=C(O)CCCSCCN1C(=O)CC[C@@H]1CC[C@@H](O)c1cccc(Oc2cccc(F)c2)c1 [Compound 15, 4-[2-((S)-2-{(R)-3-[3-(3-Fluoro-phenoxy)-phenyl]-3-hydroxy-propyl}-5-oxo-pyrrolidin-1-yl)-ethylsulfanyl]-butyric Acid] | 

The next lines start with the compound.

SMILES | Ki (rEP4 receptor; [1]) | Ki (rEP2 receptor) | Ki (rEP3 receptor) | Ki (rEP4 receptor; read-out: EP4, Ki; [3H]-PGE2 competitive binding, membranes of transfected COS-7 cells, pH 6.0, 45 minutes at 23° C.)
CCCCCC(O)/C=C/[C@H]1CCC(=O)N1C/C=C\COCC(=O)O (stereo partly drawn) [Compound 8, {(Z)-4-[(R)-2-((E)-3-hydroxy-oct-1-enyl)-5-oxo-pyrrolidin-1-yl]-but-2-enyloxy}-acetic acid] |  | > 10000 nM |  | 
O=C(O)COCCCCN1C(=O)CC[C@@H]1/C=C/[C@@H](O)Cc1cccc(C(F)(F)F)c1 [Compound 10, (4-{(R)-2-[(S)-(E)-3-hydroxy-4-(3-trifluoromethyl-phenyl)-but-1-enyl]-5-oxo-pyrrolidin-1-yl}-butoxy)-acetic acid] |  | 66000 nM | > 10000 nM | 7 nM
CCCCC[C@H](O)/C=C/C1CCC(=O)N1OCCCCCC(=O)O (stereo partly drawn) [Compound 28, 6-[2-((S)-(E)-3-Hydroxy-oct-1-enyl)-5-oxo-pyrrolidin-1-yloxy]-hexanoic acid] | 60 nM | > 10000 nM | > 10000 nM | 
